Assay results: ChEMBL document CHEMBL3585251, “Tetracycline analogues with a selective inhibitory effect on HIF-1” (Medchemcomm, 2014)
Each block holds one compound with its values, some of them ahead of it. The source made the active and inactive calls. The rule behind the calls is not given here.

What was measured:
[1] = target: T1, Hypoxia-inducible factor 1-alpha (Homo sapiens, UniProt Q16665); assay: Inhibition of human HIF1alpha-mediated transcription expressed in human U251 cells co-transfected with pGL2-TK-HRE incubated for 24 hrs by luciferase reporter gene assay; type: cell-based, U-251
Target sequence in this assay (Q16665 whole entry): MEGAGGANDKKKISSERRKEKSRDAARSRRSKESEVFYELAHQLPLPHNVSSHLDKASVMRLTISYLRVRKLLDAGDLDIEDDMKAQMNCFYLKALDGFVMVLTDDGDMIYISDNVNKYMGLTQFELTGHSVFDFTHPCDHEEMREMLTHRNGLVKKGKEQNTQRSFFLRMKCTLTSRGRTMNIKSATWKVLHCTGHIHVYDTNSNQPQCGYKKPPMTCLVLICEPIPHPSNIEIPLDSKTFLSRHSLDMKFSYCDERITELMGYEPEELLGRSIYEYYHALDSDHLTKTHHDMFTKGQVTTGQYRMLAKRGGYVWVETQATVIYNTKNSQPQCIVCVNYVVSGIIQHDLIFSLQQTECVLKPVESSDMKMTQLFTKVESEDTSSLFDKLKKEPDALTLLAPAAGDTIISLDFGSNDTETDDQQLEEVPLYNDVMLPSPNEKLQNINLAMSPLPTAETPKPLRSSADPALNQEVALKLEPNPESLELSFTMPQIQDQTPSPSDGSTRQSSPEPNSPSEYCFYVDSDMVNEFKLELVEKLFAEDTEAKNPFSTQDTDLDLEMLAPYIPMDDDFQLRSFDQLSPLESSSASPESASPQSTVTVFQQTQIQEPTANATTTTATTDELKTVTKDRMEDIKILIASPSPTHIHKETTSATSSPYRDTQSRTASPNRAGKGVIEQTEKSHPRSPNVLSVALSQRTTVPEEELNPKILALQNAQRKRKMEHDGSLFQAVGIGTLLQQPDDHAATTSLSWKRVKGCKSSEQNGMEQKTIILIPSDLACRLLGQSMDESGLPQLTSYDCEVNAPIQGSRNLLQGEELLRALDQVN

U-251 [2] = assay: Effect on basal transcription in human U251 cells co-transfected with pGL3 incubated for 24 hrs by luciferase reporter gene assay; type: ADME, cell-based; settings: U-251, 24 h
[3] = Selectivity index, ratio of EC50 for effect on basal transcription in human U251 cells co-transfected with pGL3 to EC50 for Inhibition of human HIF1alpha expressed in human U251 cells co-transfected with pGL2-TK-HRE; set-up: species or system U-251
U-251 [4] = assay: Inhibition of human HIF1alpha mRNA expression in wild type human U251 cells at 1 uM incubated for 8 hrs under hypoxic condition (reference value: 0.7 no unit); type: functional
[5] = target: T1, Hypoxia-inducible factor 1-alpha; assay: Inhibition of hypoxia-induced HIF1alpha protein accumulation in wild type human U251 cells at 1 and 10 uM incubated for 8 hrs under hypoxic condition; type: cell-based; settings: U-251
Target sequence in this assay (Q16665 whole entry, looked up): as the sequence (Q16665 whole entry) above

U-251 [6] = assay: Inhibition of human HIF1alpha mRNA expression in wild type human U251 cells at 10 uM incubated for 8 hrs under hypoxic condition (reference value: 0.7 no unit); type: functional
[7] = target: T1, Hypoxia-inducible factor 1-alpha; assay: Inhibition of HIF1alpha protein accumulation in wild type human U251 cells at 10 uM incubated for 16 hrs under normoxic condition; type: cell-based; settings: U-251
Target sequence in this assay (Q16665 whole entry, looked up): as the sequence (Q16665 whole entry) above

U-251 [8] = assay: Inhibition of human HIF1alpha mRNA expression in wild type human U251 cells at 10 uM incubated for 16 hrs; type: functional; settings: U-251, 16 h
U-251 [9] = assay: Inhibition of hypoxia-induced HIF1beta protein accumulation in wild type human U251 cells at 1 and 10 uM incubated for 8 hrs under normoxic condition; type: cell-based
[10] = target: T1, Hypoxia-inducible factor 1-alpha; assay: Inhibition of human HIF1alpha-mediated VEGF mRNA expression in wild type human U251 cells at 1 uM incubated for 16 hrs under hypoxic condition; type: cell-based; settings: U-251
Target sequence in this assay (Q16665 whole entry, looked up): as the sequence (Q16665 whole entry) above

U-251 [11] = assay: Inhibition of human HIF1alpha mRNA expression in wild type human U251 cells at 10 uM incubated for 8 hrs; type: functional; settings: U-251, 8 h
U-251 [12] = assay: Inhibition of human HIF1alpha mRNA expression in wild type human U251 cells at 1 uM incubated for 16 hrs under hypoxic condition (reference value: 0.9 no unit); type: functional
[13] = target: T1, Hypoxia-inducible factor 1-alpha; assay: Inhibition of human HIF1alpha-mediated VEGF mRNA expression in wild type human U251 cells at 1 uM incubated for 16 hrs under normoxic condition (Rvb =2.9 No unit); type: cell-based; settings: U-251
Target sequence in this assay (Q16665 whole entry, looked up): as the sequence (Q16665 whole entry) above

U-251 [14] = assay: Effect on basal transcription in wild type human U251 cells at 1 and 10 uM incubated for 8 and 16 hrs under normoxic condition; type: ADME, cell-based; settings: u-251, 16 h
[15] = target: T1, Hypoxia-inducible factor 1-alpha; assay: Inhibition of human HIF1alpha-mediated VEGF mRNA expression in wild type human U251 cells at 10 uM incubated for 8 hrs under hypoxic condition (reference value: 3.5 No unit); type: cell-based; settings: U-251
Target sequence in this assay (Q16665 whole entry, looked up): as the sequence (Q16665 whole entry) above

[16] = target: T1, Hypoxia-inducible factor 1-alpha; assay: Inhibition of human HIF1alpha-mediated VEGF mRNA expression in wild type human U251 cells at 1 uM incubated for 8 hrs under hypoxic condition (reference value: 3.5 No unit); type: cell-based; settings: U-251
Target sequence in this assay (Q16665 whole entry, looked up): as the sequence (Q16665 whole entry) above

[17] = target: T1, Hypoxia-inducible factor 1-alpha; assay: Inhibition of human HIF1alpha-mediated VEGF mRNA expression in wild type human U251 cells at 10 uM incubated for 16 hrs under normoxic condition (Rvb =2.9 No unit); type: cell-based; settings: U-251
U-251 [18] = assay: Inhibition of human HIF1alpha mRNA expression in wild type human U251 cells at 10 uM incubated for 16 hrs under hypoxic condition (reference value: 0.9 no unit); type: functional
U-251 [19] = assay: Inhibition of hypoxia-induced HIF1beta protein accumulation in wild type human U251 cells at 1 and 10 uM incubated for 8 hrs under hypoxic condition; type: cell-based
[20] = target: T1, Hypoxia-inducible factor 1-alpha; assay: Inhibition of human HIF1alpha-mediated VEGF mRNA expression in wild type human U251 cells at 10 uM incubated for 16 hrs under hypoxic condition; type: cell-based; settings: U-251
U-251 [21] = assay: Inhibition of human HIF1alpha mRNA expression in wild type human U251 cells at 1 and 10 uM incubated for 8 and 16 hrs under normoxic condition; type: functional, cell-based

- EC50 [1]: 6.7 µM
- EC50 (U-251 [2]): > 20 µM
SMILES: C[C@@]12C(=O)c3cccc(O)c3C(=O)[C@@H]1C[C@@H]1C(=CC[C@@H]3C(=O)NC(=O)[C@@H]31)[C@@H]2c1ccc(C(F)(F)F)cc1 (racemic)
- Ratio EC50 [3]: >3

- inhibition [5]: Dose-dependent effect
- inhibition [7]: Active
- inhibition [10]: 35%
- fold change (FC) [13]: 1.9
- fold change (FC) [15]: 1.6
- fold change (FC) [16]: 3
- fold change (FC) [17]: 1.2
- EC50 [1]: 2.3 µM
- inhibition [20]: 59%
- EC50 (U-251 [2]): > 20 µM
SMILES: C[C@@]12C[C@@H]3C(=CC[C@@H]4C(=O)NC(=O)[C@@H]43)[C@H](c3ccc(C(F)(F)F)cc3)[C@@H]1C(=O)c1ccccc1C2=O (racemic)
- fold change (FC) (U-251 [4]): 0.8
- fold change (FC) (U-251 [6]): 0.5
- inhibition at 10 µM (U-251 [8]): 45%
- inhibition (U-251 [9]): inactive
- inhibition at 10 µM (U-251 [11]): 29%
- fold change (FC) (U-251 [12]): 0.7
- Activity (U-251 [14]): Non-toxic
- fold change (FC) (U-251 [18]): 0.21
- inhibition (U-251 [19]): inactive
- Ratio EC50 [3]: >8.6
- inhibition (U-251 [21]): Active

- inhibition [5]: Dose-dependent effect
- inhibition [7]: Active
- inhibition [10]: 38%
- fold change (FC) [13]: 1.6
- fold change (FC) [15]: 1.7
- fold change (FC) [16]: 2.7
- fold change (FC) [17]: 0.9
- EC50 [1]: 1.4 µM
- inhibition [20]: 69%
- EC50 (U-251 [2]): > 20 µM
SMILES: C[C@@]12C[C@@H]3C(=CC[C@@H]4C(=O)N(CCC(=O)O)C(=O)[C@@H]43)[C@H](c3ccc(Br)cc3)[C@@H]1C(=O)c1ccccc1C2=O (racemic)
- fold change (FC) (U-251 [4]): 0.8
- fold change (FC) (U-251 [6]): 0.4
- inhibition at 10 µM (U-251 [8]): 78%
- inhibition (U-251 [9]): inactive
- inhibition at 10 µM (U-251 [11]): 43%
- fold change (FC) (U-251 [12]): 0.7
- Activity (U-251 [14]): Non-toxic
- fold change (FC) (U-251 [18]): 0.2
- inhibition (U-251 [19]): inactive
- Ratio EC50 [3]: >14
- inhibition (U-251 [21]): Active

- EC50 [1]: 6.7 µM
- EC50 (U-251 [2]): > 20 µM
SMILES: COc1cccc2c1C(=O)[C@@H]1C[C@@H]3C(=CC[C@@H]4C(=O)NC(=O)[C@@H]43)[C@H](c3ccc(C(F)(F)F)cc3)[C@]1(C)C2=O (racemic)
- Ratio EC50 [3]: >3

- EC50 [1]: 15.5 µM
- EC50 (U-251 [2]): > 20 µM
SMILES: COc1cccc2c1C(=O)[C@@H]1C[C@@H]3C(=CC[C@@H]4C(=O)N(CCC(=O)O)C(=O)[C@@H]43)[C@H](c3ccc(Br)cc3)[C@]1(C)C2=O (racemic)
- Ratio EC50 [3]: >1.4

- EC50 [1]: 7.8 µM
- EC50 (U-251 [2]): > 20 µM
SMILES: C[C@@]12C[C@@H]3C(=CC[C@@H]4C(=O)NC(=O)[C@@H]43)[C@H](c3ccc(C(F)(F)F)cc3)[C@]1(C)C(=O)c1ccccc1C2=O (racemic)
- Ratio EC50 [3]: >2.7

- EC50 [1]: 4.1 µM
- EC50 (U-251 [2]): 8.7 µM
SMILES: C[C@@]12C[C@@H]3C(=CC[C@@H]4C(=O)N(CCC(=O)O)C(=O)[C@@H]43)[C@H](c3ccc(F)cc3)[C@@H]1C(=O)c1ccccc1C2=O (racemic)
- Ratio EC50 [3]: 2.15

- EC50 (U-251 [2]): > 20 µM
SMILES: CC[C@@]1(O)C(=O)OCc2c1cc1n(c2=O)Cc2cc3c(CN(C)C)c(O)ccc3nc2-1 [TOPOTECAN]
